Experimental data published in patent US9880171B2, “iASPP phosphorylation and metastatic potential” (LUDWIG INSTITUTE FOR CANCER RESEARCH LTD., priority 2012, dated 2018).
“Also recorded” adds a separate entry of the source.

Experiments:
[1] = tested on: WM278, Me300 and SK-MEL37 melanoma cells; test: colony formation assay, Example 10, human melanoma cells; type: cell-based; settings: agent alone; melanoma cell lines
Description: FIG. 21. Restoring apoptotic function of p53 cooperates with BRAFV600E inhibition to suppress human melanoma cell growth. […] The bar graphs (mean±SD) were derived from three independent experiments. *p<0.05. Lower images show representative Annexin V/7-AAD profile and dishes, respectively. FIG. 21C. Diagrams showing how cyclinB1/cdk1 phosphorylation controls iASPP localization in interphase (interphase) or mitosis or tumor cells (mitosis/melanomas). Blue and red stars (*) indicate the C- and N-terminal contact residues and the phosphorylation status is labeled as (P). The bottom diagram summarizes the pathways that PLX4032, Nutlin3 and JNJ used to suppress melanoma cell growth.

[2] = tested on: nuclear iASPP and p53 in B16 tumors; test: immunofluorescence staining of iASPP and p53 in B16 tumor sections; type: in vivo, C57BL/6 mice; settings: tumor sections from i.p. treated mice
[3] = tested on: p53 expression in B16 cells; test: p53 level after Nutlin3 treatment, B16 cells; type: cell-based, mouse
Method: FIG. 20. Restoring p53 by inhibiting mdm2 and iASPP suppresses melanoma growth in vitro and in vivo. FIG. 20A. H1299 cells were treated with DMSO or 10 μM nocodazole in the presence or absence of 2 or 10 μM of mitosis-related kinase inhibitors as indicated. […] FIG. 20B. Left panel: representative p53 level after Nutlin3 treatment for 24 hours in a variety of cells. Right bar graphs show the sub-G1 proportion of WM278 after treatment as that described in FIG. 19B (in upper panel, 10 μM and 20 μM Nutlin3 were used in parallel for comparison). From left to right of the upper right bar graph of FIG. 20B, the bars correspond to DMSO, Nut and JNJ+Nut, respectively. From left to right of the bottom bar graph of FIG. 20B, the bars correspond to DMSO, JNJ, Nut and JNJ+Nut, respectively. FIG. 20C. Me300, SK-MEL37, and B16 cells were treated as above (For B16 panel, 10 μM Nutlin3 was used) and sub-G1 proportion was analyzed. In (B) and (C), the bar graphs (mean±SD) were derived from three independent experiments. *p<0.05. FIG. 20D. Left panel: untreated B16 cells were subcutaneously injected into mice at day 1. […] Compound administration and tumor size measurement were repeated every two days from day 7 onwards. Bar graphs are shown as mean±SD (*p<0.05, n=6). FIG. 20E. Lower panels show representative images of isolated tumors. Right panel: representative H & E staining in B16 tumor section. Bar=20 μm. […]

B16 melanoma cells = test: xenograft assay, B16 cells treated in vitro and injected into C57BL/6 mice; type: in vivo; settings: 13 days after injection of in vitro treated B16 cells
Method: At day 1, C57BL/6 mice (7-9 weeks old) were injected s.c. at flanks with 1×10^6 B16 melanoma cells in 100 μl PBS (component treated cells for FIG. 19C, untreated cells for FIGS. 19D and 20D). Component (Nutlin3 (40 mg/kg) or JNJ-7706621 (also referred to herein as “JNJ”, 30 mg/kg)) was dissolved in DMSO and i.p. administered every two days since day 3, or day 7 (no component administration for FIG. 19C). Tumor size was measured every two days with vernier caliper. Tumor volumes were calculated using the following formula: (L*W*W)/2, in which L represents the larger diameter of the tumor, and W represents the smaller diameter. On day 13 (tumor area reach ˜1.2 cm diameter in DMSO group), all mice were sacrificed and tumors were isolated and weighed.
Mouse B16 melanoma cells are known to form highly aggressive melanoma in vivo in immune competent C57BL/6 syngeneic mice. Because regulation of p53 by iASPP and mdm2 exists in both human WM278 cells and mouse B16 cells, experiments were carried out to determine if restoring p53 function in B16 cells is able to suppress tumor growth in C57BL/6 mice in vivo. B16 cells, treated with (1) DMSO, (2) Nutlin3, (3) JNJ, or (4) Nutlin3+JNJ, were injected into the flank of 7-9 week-old female C57BL/6 mice.

B16 melanoma = test: xenograft assay, untreated B16 cells, compounds given i.p.; type: in vivo, C57BL/6 mice; set-up: concentration or dose not given beside the values
Method: (§1) FIG. 20. Restoring p53 by inhibiting mdm2 and iASPP suppresses melanoma growth in vitro and in vivo. FIG. 20A. H1299 cells were treated with DMSO or 10 μM nocodazole in the presence or absence of 2 or 10 μM of mitosis-related kinase inhibitors as indicated. […] FIG. 20B. Left panel: representative p53 level after Nutlin3 treatment for 24 hours in a variety of cells. Right bar graphs show the sub-G1 proportion of WM278 after treatment as that described in FIG. 19B (in upper panel, 10 μM and 20 μM Nutlin3 were used in parallel for comparison). From left to right of the upper right bar graph of FIG. 20B, the bars correspond to DMSO, Nut and JNJ+Nut, respectively. From left to right of the bottom bar graph of FIG. 20B, the bars correspond to DMSO, JNJ, Nut and JNJ+Nut, respectively. FIG. 20C. Me300, SK-MEL37, and B16 cells were treated as above (For B16 panel, 10 μM Nutlin3 was used) and sub-G1 proportion was analyzed. In (B) and (C), the bar graphs (mean±SD) were derived from three independent experiments. *p<0.05. FIG. 20D. Left panel: untreated B16 cells were subcutaneously injected into mice at day 1. […] Compound administration and tumor size measurement were repeated every two days from day 7 onwards. Bar graphs are shown as mean±SD (*p<0.05, n=6). FIG. 20E. Lower panels show representative images of isolated tumors. Right panel: representative H & E staining in B16 tumor section. Bar=20 μm.
At day 1, C57BL/6 mice (7-9 weeks old) were injected s.c. at flanks with 1×10^6 B16 melanoma cells in 100 μl PBS (component treated cells for FIG. 19C, untreated cells for FIGS. 19D and 20D).

[4] = tested on: WM278, Me300 and SK-MEL37 melanoma cells; test: apoptosis by Annexin V / Sub-G1 FACS analysis, Example 10, human melanoma cells; type: cell-based; settings: for apoptosis: agent alone, JNJ 0.4 μM, Nutlin3 10-20 μM, 72 hours, melanoma cell lines
Method: as §1
FIG. 21. Restoring apoptotic function of p53 cooperates with BRAFV600E inhibition to suppress human melanoma cell growth.

[5] = tested on: iASPP modification and p53-iASPP binding in WM278 cells; test: iASPP modification and p53 co-immunoprecipitation in WM278 cells; type: cell-based, human
Method: For WB, cells were lysed in buffer containing 8 M urea, 1 M thiourea, 0.5% CHAPS, 50 mM DTT, and 24 mM spermine. A total of 40 μg of protein extract was loaded per lane into SDS-polyacrylamide gels. Gels were transferred onto nitrocellulose membrane (Protran) and the resulting blots incubated first with primary antibody overnight at 4° C. and then with the appropriate secondary horseradish peroxidize-conjugated antibody (Dako). The results were visualized by enhanced chemiluminescent detection (Amersham Biosciences) using X-ray film (Fujifilm). For cell lysate immunoprecipitation, cells were dissolved in NP40 buffer (50 mM Tris-HCl pH 8.0, 150 mM NaCl, 1% NP-40) with protease inhibitor cocktail mix (Roche Diagnostics). Cells were further thoroughly broken by ultrasonication, followed by spinning for 1 hour. Achieved suspension was adjusted to 1-2 mg/ml using NP40 buffer and incubated with 20 μl nickel beads, glutathione beads, or protein A beads (with 2 μg required antibody) for 2 h at room temperature. The beads were washed for four times with NP40 buffer, boiled for 5 min in Laemmli sample buffer, and applied for Western blotting. For pure protein immunoprecipitation, 5-10 μg purified proteins were mixed in NP40 buffer with 1 mg/ml BSA for 2 h at room temperature.

[6] = i.p. administration from day 3 after B16 inoculation
[7] = i.p. administration from day 7 after B16 inoculation

SMILES	suppression of cell growth [1]	iASPP expression in B16 tumors [2]	p53 expression in B16 tumors [2]	optimal concentration of Nutlin3 to induce maximal p53 expression [3]	tumor size and weight, of control (DMSO-treated B16 cell group) (B16 melanoma cells)	suppression of B16 melanoma growth (B16 melanoma; [6])	suppression of B16 melanoma growth (B16 melanoma; [7])	apoptosis [4]	amount of modified iASPP ([5]; 0.4 μM JNJ or 10 μM nocodazole overnight)	binding of iASPP to p53 (co-immunoprecipitation) ([5]; 0.4 μM JNJ, listed as JNJ)	increase in Nutlin3-induced apoptosis ([4]; Me300 and WM278 cells, Annexin V or Sub-G1)
COc1ccc(C2=N[C@@H](c3ccc(Cl)cc3)[C@@H](c3ccc(Cl)cc3)N2C(=O)N2CCNC(=O)C2)c(OC(C)C)c1 [Nutlin3]	limited	minimal impact on iASPP expression	induced nuclear p53 expression	10 µM	~60%	22%	5%	only a small percentage of cells	–	–	–
Nc1nc(Nc2ccc(S(N)(=O)=O)cc2)nn1C(=O)c1c(F)cccc1F [JNJ-7706621]	limited	clearly reduced nuclear iASPP expression	no effect on p53 expression	–	around 40%	36%	30%	only a small percentage of cells	reduced the amount of modified iASPP	failed to co-immunoprecipitate iASPP; also recorded: able to prevent iASPP from binding to p53	3-4 fold
